Experimental data taken from PMC4938538, “Inhibition of Pig Phosphoenolpyruvate Carboxykinase Isoenzymes by 3-Mercaptopicolinic Acid and Novel Inhibitors” (PLoS ONE, 2016).
Positions count from the first letter of the chain named. Several values for one entry are separate records, joined by “and”; a condition that tells them apart may be missing. Identical values can stand only once.

What was measured:
PEPCK-C 139Met [1] = target: T1, PEPCK-C 139Met (Sus scrofa, UniProt A0A4X1UM84); assay: Near-UV circular dichroism spectra; format: binding, pig; design: His-tag (cleaved yes); made in house; host or cells: Escherichia coli BL21 (DE3); settings: 50 μM compound, 20 μM PEPCK-C (compound 1 also 150 μM, data not shown)
T1 sequence (A0A4X1UM84 1-622): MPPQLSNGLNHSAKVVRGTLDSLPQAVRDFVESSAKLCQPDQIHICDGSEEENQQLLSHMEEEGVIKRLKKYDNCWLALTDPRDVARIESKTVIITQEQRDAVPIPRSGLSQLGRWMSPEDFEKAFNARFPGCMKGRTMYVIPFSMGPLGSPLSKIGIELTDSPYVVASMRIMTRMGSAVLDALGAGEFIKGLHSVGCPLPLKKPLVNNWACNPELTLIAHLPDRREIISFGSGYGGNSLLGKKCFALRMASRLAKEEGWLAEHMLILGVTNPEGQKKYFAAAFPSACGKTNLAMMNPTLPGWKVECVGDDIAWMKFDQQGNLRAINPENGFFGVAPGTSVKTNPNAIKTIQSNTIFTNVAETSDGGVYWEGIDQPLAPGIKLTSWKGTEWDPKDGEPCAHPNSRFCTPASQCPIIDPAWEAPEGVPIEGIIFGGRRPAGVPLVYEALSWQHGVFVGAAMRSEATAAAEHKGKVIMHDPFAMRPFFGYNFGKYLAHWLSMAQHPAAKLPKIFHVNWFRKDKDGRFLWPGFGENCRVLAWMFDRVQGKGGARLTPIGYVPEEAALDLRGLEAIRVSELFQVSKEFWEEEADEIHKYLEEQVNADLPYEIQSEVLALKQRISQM
Protocol: (§1) PEPCK-C was diluted to 20 μM in a 20 mM HEPES pH 7.4 buffer, containing 1 mM TCEP. 50 μM 3-MP, compound 1 or compound 2 were added to the PEPCK-C solution. Readings were performed at 25°C in a 0.1 cm cuvette from 320 to 250 nm in a Chirascan CD-spectrophotometer (Applied Photophysics, UK). CD spectra were calculated after subtracting the blank which contained all the components except PEPCK-C.

PEPCK-C 139Met [2] = target: T1, PEPCK-C 139Met; assay: Compound 1 and 2 inhibition assays in PEP synthesis direction (Vmax and Km); format: biochemical, pig; design: made in house; host or cells: Escherichia coli BL21 (DE3); settings: for Vmax (GTP) in presence of inhibitor / Vmax (OAA) in presence of inhibitor: 50 μM inhibitor; for Vmax (OAA) in presence of inhibitor: OAA variable substrate
Protocol: (§2) PEPCK-C activity was measured in an UNICAM 500 spectrometer (UNICAM Analytical Systems, UK) with coupled spectrophotometric assays using pyruvate kinase and lactate dehydrogenase as auxiliary enzymes in PEP synthesis reaction and malate dehydrogenase in the reverse reaction.
3-MP inhibitions assays in OAA synthesis direction were carried out as described before with the exception of the variable substrate (50–600 μM for PEP and 10–100 μM for GDP) and 3-MP concentration (10–100 μM). Assays in the direction of PEP synthesis were performed in 1 mL of a 100 mM HEPES buffer pH 7.4, containing 10 mM DTT, 0.2 mM MnCl2, 2 mM MgCl2, 1 mM GTP or 400 μM OAA, 1 mM ADP, 0.2 mM NADH, PEPCK-C and 5 units of each pyruvate kinase and lactate dehydrogenase. Reactions were initiated by addition of OAA. Variable substrates were 5–50 μM OAA or 25–500 μM GTP and 3-MP concentrations were between 10–400 μM. Rates were calculated by measuring the decreasing slope at 340 nm of absorbance after subtracting the rate of spontaneous NADH oxidation in the case of OAA synthesis or the rate of the blank which contained all the components of the mix but PEPCK-C in the case of PEP synthesis.
Compound 1 and 2 inhibitions assays were performed in PEP synthesis direction as described in 3-MP inhibition assays. Variable substrates were 10–100 μM OAA or 25–500 μM GTP, inhibitors concentrations were around IC50 value (100 μM compound 1 or 50 μM compound 2) and 20 units of each pyruvate kinase and lactate dehydrogenase were also added.
Data from compound 1 and 2 inhibition assays were represented in double reciprocal plots to calculate Vmax and Km values using GraphPad Prism 3.03 software.

wild type PEPCK-C = target: T2, wild type PEPCK-C (Sus scrofa, UniProt A0A4X1UM84); assay: IC50 determination, PEPCK-C activity in the direction of OAA synthesis (coupled spectrophotometric assay with malate dehydrogenase); format: biochemical, pig; settings: saturating substrate concentration
T2 construct: made in house; host or cells: Escherichia coli BL21 (DE3)
T2 sequence (A0A4X1UM84 1-622): T1 sequence (A0A4X1UM84 1-622)
Protocol: as §2
Variable inhibitor concentrations of 0–200 μM were also used. Assays were initiated by PEPCK-C addition. Rates were calculated by measuring the decreasing slope of absorbance at 340 nm after subtracting the rate of spontaneous NADH oxidation.
3-MP inhibition assays were fitted in double reciprocal plots. To describe the mixed non-competitive inhibition, the double reciprocal equation can be written as: 1/v = Km/Vmax (1+[I]/Ki) 1/[S]+1/Vmax (1+[I]/αKi) (2)

PEPCK-C 139Leu = target: T3, PEPCK-C 139Leu (Sus scrofa, UniProt A0A4X1UM84, M139L); assay: Near-UV circular dichroism spectra; format: binding, pig; settings: 50 μM compound, 20 μM PEPCK-C (compound 1 also 150 μM, data not shown)
T3 construct: made in house; host or cells: Escherichia coli BL21 (DE3)
T3 sequence (A0A4X1UM84 1-622 M139L): T1 sequence (A0A4X1UM84 1-622) with M139L
Protocol: as §1

`Cn1nc(-c2ccc(C=NNC(=O)c3ccc(Cl)cc3Cl)s2)cc1C(F)(F)F` [compound 2, N'1-({5-[1-methyl-5-(trifluoromethyl)-1H-pyrazol-3-yl]-2-thienyl}methylidene)-2,4-dichlorobenzene-1-carbohydrazide] was tested, and the “Change of near-UV CD spectrum of the enzyme” value (shortened to “Change”) (PEPCK-C 139Met [1]) was “more markedly compound 2 modify the CD spectra of both isoenzymes”, the “Rise of Km value for GTP in presence of the inhibitor” value (PEPCK-C 139Met [2]; GTP variable substrate) was “threefold” and the “Vmax (GTP) in presence of inhibitor” value (PEPCK-C 139Met [2]; GTP variable substrate) was 5.9 ± 2.3 µmol/min/mg. For the same compound, the “Vmax (OAA) in presence of inhibitor” value (PEPCK-C 139Met [2]) was 4.6 µmol/min/mg and 4.6 ± 1.4 µmol/min/mg, the IC50 (wild type PEPCK-C) was 30 ± 2 µM and the “Change” value (PEPCK-C 139Leu) was “more markedly compound 2 modify the CD spectra of both isoenzymes”.
With `CC(=NNC(=S)NC1CCCCC1)c1sc(-c2cccs2)nc1C` [compound 1, N1-cyclohexyl-2-{1-[4-methyl-2-(2-thienyl)-1,3-thiazol-5-yl]ethylidene}hydrazine-1-carbothiamide] the “Change” value (PEPCK-C 139Met [1]) was “no clear differences in the enzyme CD spectra”, the “Vmax (GTP) in presence of inhibitor” value (PEPCK-C 139Met [2]; GTP variable substrate) was 7.8 µmol/min/mg and 7.8 ± 0.5 µmol/min/mg and the “Vmax (OAA) in presence of inhibitor” value (PEPCK-C 139Met [2]) was 6.7 µmol/min/mg and 6.7 ± 1.4 µmol/min/mg. The IC50 (wild type PEPCK-C) was 134 ± 4 µM and the “Change” value (PEPCK-C 139Leu) was “no clear differences in the enzyme CD spectra”.
In the case of `O=C(O)c1ncccc1S` [3-MP, 3-mercaptopicolinic acid], the “Change” value (PEPCK-C 139Met [1]) is reported as “modify the CD spectra of both isoenzymes”, the IC50 (wild type PEPCK-C) is reported as 65 ± 6 µM and the “Change” value (PEPCK-C 139Leu) is reported as “modify the CD spectra of both isoenzymes”.
